Assay results from ChEMBL document CHEMBL1201862, “PubChem BioAssay data set” (2004).
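Dose response: 5 concentrations. Exposure: 48 h. Format: 96-well plates. Endpoint: linear interpolation; highest concentration if not reached. Abbreviation: GI50, concentration required for 50% inhibition of growth.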 Active and inactive are the calls of the source. Cut-off read from the data, not from the text of the source: active = GI50 up to about 1.1 µM and inactive = higher.

How the values were obtained:
Test in all cases: NCI-60 cell line screen, 48 h
[1] = test system: RXF 393
[2] = test system: MOLT-4
[3] = test system: HT-29
[4] = test system: OVCAR-5
[5] = test system: HOP-62
[6] = test system: A549
[7] = test system: SW-620
[8] = test system: UACC-257
[9] = test system: NCI-H460
[10] = test system: CCRF-CEM
[11] = test system: SNB-19
[12] = test system: SK-OV-3
[13] = test system: BT-549
[14] = test system: Hs-578T
[15] = test system: MDA-N
[16] = test system: M14
[17] = test system: SN12C
[18] = test system: NCI-H23
[19] = test system: UACC-62
[20] = test system: OVCAR-4
[21] = test system: SF-295
[22] = test system: K562
[23] = test system: KM12
[24] = test system: A498
[25] = test system: SF-539
[26] = test system: 786-0
[27] = test system: DU-145
[28] = test system: HCT-116
[29] = test system: SF-268
[30] = test system: MDA-MB-231
[31] = test system: ACHN
[32] = test system: MCF7
[33] = test system: HCT-15
[34] = test system: SK-MEL-28
[35] = test system: MDA-MB-435
[36] = test system: Malme-3M
[37] = test system: TK-10
[38] = test system: NCI/ADR-RES
[39] = test system: PC-3
[40] = test system: EKVX
[41] = test system: HL-60
[42] = test system: LOX IMVI
[43] = test system: HOP-92
[44] = test system: SK-MEL-2
[45] = test system: RPMI-8226
[46] = test system: SR
[47] = test system: OVCAR-8
[48] = test system: IGROV-1
[49] = test system: COLO 205
[50] = test system: NCI-H226
[51] = test system: UO-31
[52] = test system: NCI-H522
[53] = test system: U-251
[54] = test system: SNB-75
[55] = test system: HCC 2998
[56] = test system: OVCAR-3
[57] = test system: SK-MEL-5
[58] = test system: CAKI-1

Measured: GI50

CC(C)(C)CNCCCNc1ccc(Cl)cc1
inactive: [1] 15.7 µM | [2] 3.33 µM | [3] 20.2 µM | [4] 51.8 µM | [5] 97.1 µM | [6] > 100 µM | [7] > 100 µM | [8] 22.8 µM | [9] 37.2 µM | [10] 35.8 µM | [11] > 100 µM | [12] > 100 µM | [13] 70.6 µM | [14] 40.1 µM | [15] 46 µM | [16] 23 µM | [17] 28.7 µM | [18] > 100 µM | [19] 17.2 µM | [20] 60.8 µM | [21] 17.1 µM | [23] 36 µM | [24] 14.8 µM | [25] 92.9 µM | [26] 82.2 µM | [27] > 100 µM | [28] 55.1 µM | [29] 65.6 µM | [30] 23.2 µM | [31] > 100 µM | [32] 11.9 µM | [34] 20.9 µM | [35] 30.1 µM | [36] 22 µM | [37] 19.7 µM | [38] > 100 µM | [39] 51.3 µM | [40] 48.6 µM | [42] 25.3 µM | [43] 13.6 µM | [44] 24 µM | [45] 21.2 µM | [46] 5.41 µM | [47] > 100 µM | [48] 58.1 µM | [49] 21 µM | [50] 18.5 µM | [51] 61.2 µM | [52] 24.1 µM | [53] > 100 µM
active: [22] < 0.01 µM | [41] < 0.01 µM
93.1 µM: [33]

CCN1c2nc3ccccc3nc2N(CC)c2nc3ccccc3nc21
34.1 µM: [33]
inactive: [54] > 10 µM | [1] 55.5 µM | [55] 50.5 µM | [2] 41.8 µM | [3] 39.5 µM | [56] 41.2 µM | [4] > 100 µM | [6] 88.7 µM | [7] 30.7 µM | [8] > 10 µM | [9] 32.9 µM | [10] 48.3 µM | [11] > 100 µM | [12] > 100 µM | [13] 80.5 µM | [14] 71.4 µM | [15] 57.8 µM | [16] 61.9 µM | [17] 47.1 µM | [18] 49.1 µM | [19] 39.2 µM | [21] 39.7 µM | [22] 34 µM | [23] 39.5 µM | [24] 57.3 µM | [25] 25.8 µM | [26] 46.1 µM | [27] 65.8 µM | [57] 41.2 µM | [28] 26.9 µM | [29] 32.1 µM | [30] 70.8 µM | [31] 39.1 µM | [32] 96.4 µM | [34] 46.5 µM | [35] 42.3 µM | [36] 70.8 µM | [37] 52.6 µM | [38] 63.8 µM | [39] 61.5 µM | [40] 19.1 µM | [41] 34.7 µM | [42] > 100 µM | [44] > 100 µM | [45] 34.5 µM | [46] 12.8 µM | [47] 60.1 µM | [48] 23.2 µM | [49] 82.2 µM | [50] 51.8 µM | [51] 96.6 µM | [52] 49.5 µM | [53] 48 µM | [58] 55.8 µM
